Test results taken from the supplement of paper PMC10307832.

Legend:
Experiment in all cases: relative viability (nuclei count vs DMSO), 5 days (fraction); higher = more cells survive
Seliciclib + Linsitinib = compound: CC[C@H](CO)Nc1nc(NCc2ccccc2)c2ncn(C(C)C)c2n1 [Seliciclib] + C[C@]1(O)C[C@@H](c2nc(-c3ccc4ccc(-c5ccccc5)nc4c3)c3c(N)nccn32)C1 [Linsitinib] (partner 1 µM)
Procedure, shortened: (§1)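 One day after seeding in 1536-well plates, lung cancer cell lines were dosed by pin tool. Dosing was either single-drug or a fixed anchor-drug dose plus five library-drug doses (not always all listed) in √10 steps. After 5 days, nuclei were stained in one fix-and-stain step and counted on 4× images, and relative viability is the nuclei count of treated wells over that of vehicle wells, given as the median of duplicate plates.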

Seliciclib + Pemetrexed = compound: CC[C@H](CO)Nc1nc(NCc2ccccc2)c2ncn(C(C)C)c2n1 [Seliciclib] + Nc1nc2[nH]cc(CCc3ccc(C(=O)N[C@@H](CCC(=O)O)C(=O)O)cc3)c2c(=O)[nH]1 [Pemetrexed] (partner 0.2 µM)
Procedure, shortened: as §1

Seliciclib + Vorinostat = compound: CC[C@H](CO)Nc1nc(NCc2ccccc2)c2ncn(C(C)C)c2n1 [Seliciclib] + O=C(CCCCCCC(=O)Nc1ccccc1)NO [Vorinostat] (partner 1 µM)
Procedure, shortened: as §1

Seliciclib + Olaparib = compound: CC[C@H](CO)Nc1nc(NCc2ccccc2)c2ncn(C(C)C)c2n1 [Seliciclib] + O=C(c1cc(Cc2n[nH]c(=O)c3ccccc23)ccc1F)N1CCN(C(=O)C2CC2)CC1 [Olaparib] (partner 8 µM)
Procedure, shortened: as §1

Cell Line | relative viability (Seliciclib + Linsitinib; first compound 0.08 µM) | relative viability (Seliciclib + Linsitinib; first compound 0.253 µM) | relative viability (Seliciclib + Linsitinib; first compound 0.8 µM) | relative viability (Seliciclib + Linsitinib; first compound 2.53 µM) | relative viability (Seliciclib + Linsitinib; first compound 8 µM) | relative viability (Seliciclib + Pemetrexed; first compound 0.08 µM) | relative viability (Seliciclib + Pemetrexed; first compound 0.253 µM) | relative viability (Seliciclib + Pemetrexed; first compound 0.8 µM) | relative viability (Seliciclib + Pemetrexed; first compound 2.53 µM) | relative viability (Seliciclib + Pemetrexed; first compound 8 µM) | relative viability (Seliciclib + Vorinostat; first compound 0.08 µM) | relative viability (Seliciclib + Vorinostat; first compound 0.253 µM) | relative viability (Seliciclib + Vorinostat; first compound 0.8 µM) | relative viability (Seliciclib + Vorinostat; first compound 2.53 µM) | relative viability (Seliciclib + Vorinostat; first compound 8 µM) | relative viability (Seliciclib + Olaparib; first compound 0.08 µM) | relative viability (Seliciclib + Olaparib; first compound 0.253 µM) | relative viability (Seliciclib + Olaparib; first compound 0.8 µM) | relative viability (Seliciclib + Olaparib; first compound 2.53 µM) | relative viability (Seliciclib + Olaparib; first compound 8 µM)
LU99A | 0.565 | 0.466 | 0.474 | 0.497 | 0.494 | 0.172 | 0.211 | 0.204 | 0.197 | 0.188 | 0.538 | 0.383 | 0.458 | 0.383 | 0.455 | 0.252 | 0.264 | 0.284 | 0.279 | 0.278
LXF-289 | 0.945 | 1.03 | 0.908 | 0.947 | 0.914 | 0.883 | 1.04 | 0.81 | 0.932 | 0.842 | 0.735 | 0.824 | 0.671 | 0.582 | 0.457 | 1.06 | 1.12 | 1.03 | 1.04 | 0.772
NCI-H727 | 0.306 | 0.245 | 0.222 | 0.226 | 0.251 | – | – | – | – | – | 1.19 | 1.25 | 1.04 | 0.744 | 1.07 | 0.873 | 0.805 | 0.596 | 0.74 | 0.731
NCI-H1299 | 0.981 | 1.14 | 1.09 | 0.956 | 1 | – | – | – | – | – | – | – | – | – | – | 0.967 | 1.08 | 0.957 | 0.949 | 0.954
NCI-H1563 | 1.15 | 0.925 | 1.11 | 1.21 | 1.12 | 0.8 | 0.716 | 0.85 | 0.698 | 0.668 | – | – | – | – | – | – | – | – | – | –
NCI-H1648 | – | – | – | – | – | 0.767 | 0.922 | 0.963 | 0.675 | 0.591 | 0.519 | 0.909 | 0.417 | 0.365 | 0.373 | 1.2 | 0.968 | 0.735 | 0.734 | 0.397
NCI-H1650 | – | – | – | – | – | 0.429 | 0.346 | 0.36 | 0.427 | 0.399 | 0.474 | 0.511 | 0.558 | 0.526 | 0.326 | 0.576 | 0.804 | 0.754 | 0.666 | 0.756
NCI-H1703 | 0.675 | 0.869 | 0.767 | 0.989 | 0.712 | – | – | – | – | – | – | – | – | – | – | 0.467 | 0.54 | 0.528 | 0.439 | 0.352
NCI-H1792 | 0.459 | 0.568 | 0.521 | 0.678 | 0.477 | 0.795 | 0.694 | 0.82 | – | 0.868 | – | – | – | – | – | 0.338 | 0.341 | 0.399 | – | 0.322
NCI-H2170 | – | – | – | – | – | 0.269 | – | 0.262 | 0.268 | 0.26 | 0.742 | – | 0.774 | 0.687 | 0.663 | 0.521 | – | 0.582 | 0.654 | 0.609
SW 900 | – | – | – | – | – | 0.515 | 0.501 | 0.484 | 0.451 | 0.406 | 0.53 | 0.701 | 0.484 | 0.467 | 0.35 | 0.769 | 0.89 | 0.79 | 0.721 | 0.437
